The values that follow are results of earlier work, collected in PubChem BioAssay AID1259410 (Chemical Carcinogenesis Research Information System (CCRIS), 2018).

The data set concerns rodent tumor promotion studies, tumor incidence. Nature of the data set: CCRIS tumor promotion studies.
Setting [1] is: Carcinogen: 7,12-DIMETHYLBENZ(A)ANTHRACENE, Doses [Carcinogen]: TOP, Route [Carcinogen]: DERMAL, Route [Promoter]: DERMAL, Species: MOUSE, Strain/Sex: FEMALE.

Regarding `O=C(CCNNC(=O)c1ccncc1)NCc1ccccc1`, the outcome (Carcinogen: N-METHYL-N'-NITRO-NITROSOGUANIDINE, Doses [Carcinogen]: 25 UG/ML IN DRINKING WATER FOR 25 WK, Doses [Promoter]: 0, 50 MG/KG IN OLIVE OIL 1/2D FOR 26 WK ADMINISTERED POST CARCINOGEN DOSES (STUDY DURATION: 52 WK), Route [Carcinogen]: ORAL, Route [Promoter]: SUBCUTANEOUS, Species: RAT, Strain/Sex: WISTAR/MALE) is reported as “glandular stomach: adenocarcinoma”.
Regarding `CCCCCCCCCCCCCC`, the outcome is, setting by setting: under setting [1], “integumentary system (skin)”; (Carcinogen: BENZO(A)PYRENE, Doses [Carcinogen]: TOP, Route [Carcinogen]: DERMAL, Route [Promoter]: DERMAL, Species: MOUSE, Strain/Sex: FEMALE) “integumentary system (skin)”.
Regarding `CC(=O)OC/C=C(C)/C=C/C=C(C)/C=C/C1=C(C)CCCC1(C)C`, the outcome (Carcinogen: 3'-METHYL-4-DIMETHYLAMINOAZOBENZENE, 55-80-1, Doses [Carcinogen]: 0.06% IN DIET FOR 7 WK, Doses [Promoter]: 0, 6.25, 12.5, 25 MG 1/5 D FOR 10 WK ADMINISTERED 3 WK POST CARCINOGEN (STUDY DURATION: 25 WK), Doses [Promoter]: 0, 6.25, 12.5, 25 MG 1/5 D FOR 10 WK ADMINISTERED 3 WK POST CARCINOGEN (STUDY DURATION: 25 WK), Route [Carcinogen]: ORAL, Route [Promoter]: INTRAPERITONEAL, Species: RAT, Strain/Sex: DONRYU/MALE) is listed as “liver: hepatocellular carcinoma”.
As for `CCCCCCCCCCCC1(CCCC(=O)OC2C(C)C3(O)C(C=C(CO)CC4(O)C(=O)C(C)=CC43)C3C(C)(C)C23OC(C)=O)OCC(C)(C)N1[O]` (stereo not drawn), the outcome (Carcinogen: 7,12-DIMETHYLBENZ[A]ANTHRACENE, 57-97-6, Doses [Carcinogen]: 100 NMOL ONCE, Doses [Promoter]: 0, 5 NMOL 2/WK FOR 24 WK BEGINNING 1 WK POST CARCINOGEN DOSE (STUDY DURATION: 25 WK), Route [Carcinogen]: DERMAL, Route [Promoter]: DERMAL, Species: MOUSE, Strain/Sex: NMRI/FEMALE) was “skin: tumor”.
Turning to `C[S-].C[S-].N#[O+].N#[O+].N#[O+].N#[O+].[Fe].[Fe]`, the outcome (Carcinogen: 7,12-DIMETHYLBENZ[A]ANTHRACENE, 57-97-6, Doses [Carcinogen]: 100 NMOL IN 0.2 ML ACETONE ONCE, Doses [Promoter]: 300 NMOL 2/WK FOR 37 WK (STUDY DURATION: 37 WK), Route [Carcinogen]: DERMAL, Route [Promoter]: DERMAL, Species: MOUSE, Strain/Sex: BALB/FEMALE) was “skin: papilloma or carcinoma”; the outcome (Carcinogen: 7,12-DIMETHYLBENZ[A]ANTHRACENE, 57-97-6, Doses [Carcinogen]: 100 NMOL IN 0.2 ML ACETONE ONCE, Doses [Promoter]: 450 NMOL 2/WK FOR 37 WK (STUDY DURATION: 37 WK), Route [Carcinogen]: DERMAL, Route [Promoter]: DERMAL, Species: MOUSE, Strain/Sex: BALB/FEMALE) was “skin: papilloma or carcinoma”; the outcome (Carcinogen: DIETHYLNITROSAMINE, 55-18-5, Doses [Carcinogen]: 25 MG/WK FOR 2 WK, Doses [Promoter]: 6 MG 2/WK FOR 114-669 D BEGINNING 2 WK POST LAST CARCINOGEN DOSE (STUDY DURATION: 669 D), Route [Carcinogen]: GAVAGE, Route [Promoter]: GAVAGE, Species: RAT, Strain/Sex: WISTAR) is reported as “forestomach: papilloma”.
With `O=[As](O)(O)O`, under “Carcinogen: 7,12-DIMETHYLBENZ[A]ANTHRACENE [57-97-6], Doses [Carcinogen]: 50 UG 2 X A WK FOR 2 WKS (STUDY DURATION: 25 WKS), Doses [Promoter]: 25 MG/L IN DRINKING WATER FOR 25 WKS, Route [Carcinogen]: DERMAL (SKIN PAINTING), Route [Promoter]: ORAL (DRINKING WATER), Species: MOUSE, Strain/Sex: SWISS NUDE HAIRLESS/MALE”, the outcome is recorded as “skin; papillomas”.
Regarding `CCCCCCCCCCCCCCCCCCCC`, the outcome (Carcinogen: 7,12-DIMETHYLBENZ(A)ANTHRACENE, Doses [Carcinogen]: TOP, Route [Carcinogen]: DERMAL, Route [Promoter]: DERMAL, Species: MOUSE, Strain/Sex: MALE,FEMALE) was “integumentary system (skin)”.
For the compound `O=C(CO)[C@@H](O)[C@H](O)[C@H](O)CO`, under “Carcinogen: N-NITROSOMORPHOLINE, 59-89-2, Doses [Carcinogen]: 100 MG/KG/WK IN DRINKING WATER FOR 7 WK, Doses [Promoter]: 0, 120 G/L IN DRINKING WATER AD LIBITUM BEGINNING 2 D AFTER LAST CARCINOGEN DOSE (STUDY DURATION: 501 D), Route [Carcinogen]: ORAL, Route [Promoter]: ORAL, Species: RAT, Strain/Sex: SPRAGUE-DAWLEY/MALE”, the outcome is recorded as “liver: hepatocellular carcinoma”.
Take `C=C[C@@](C)(CCC=C(C)C)c1ccc2c3c(c[nH]c13)C[C@@H](CO)NC(=O)[C@H](C(C)C)N2C`: the outcome runs as follows: (Carcinogen: 7,12-DIMETHYLBENZ[A]ANTHRACENE, 57-97-6, Doses [Carcinogen]: 100 UG IN 0.1 ML ACETONE, Doses [Promoter]: 0, 3 UG IN 0.1 ML ACETONE 2/WK FOR 29 WK BEGINNING 1 WK POST CARCINOGEN DOSE (STUDY DURATION: 30 WK), Route [Carcinogen]: DERMAL, Route [Promoter]: DERMAL, Species: MOUSE) “skin: tumor”; (Carcinogen: DIMETHYLBENZ[A]ANTHRACENE, 57-97-6, Doses [Carcinogen]: 100 UG IN 100 µL ACETONE APPLIED TO THE BACK ONCE, Doses [Promoter]: 2.5 UG IN 100 µL ACETONE APPLIED TO THE BACK FOR 30 WK BEGINNING 1 WK POST CARCINOGEN DOSE (STUDY DURATION: 31 WK), Route [Carcinogen]: DERMAL, Route [Promoter]: DERMAL, Species: MOUSE, Strain/Sex: CD-1/FEMALE) “skin: papilloma”.
Take `CN(C)CCC=C1c2ccccc2CCc2ccccc21`: the outcome (Carcinogen: 7,12-DIMETHYLBENZ[A]ANTHRACENE, 57-97-6, Doses [Carcinogen]: 20 MG IN 2 ML PEANUT OIL ONCE, Doses [Promoter]: 0, 80 MG/M2 5 D/WK FOR 15 WK BEGINNING POST CARCINOGEN DOSE (STUDY DURATION: 15 WK), Route [Carcinogen]: GAVAGE, Route [Promoter]: INTRAPERITONEAL, Species: RAT, Strain/Sex: SPRAGUE-DAWLEY/FEMALE) is “mammary gland: tumor”.
`CN(C)C(=S)SSC(=S)N(C)C`: the outcome is, setting by setting: (Carcinogen: 7,12-DIMETHYLBENZ[A]ANTHRACENE, 57-97-6, Doses [Carcinogen]: 52 UG IN 100 µL ACETONE ONCE, Doses [Promoter]: 0, 100 MG/KG BW IN 100 µL DMSO 3/WK FOR 51 WK BEGINNING 1 WK POST CARCINOGEN DOSE (STUDY DURATION: 52 WK), Route [Carcinogen]: DERMAL, Route [Promoter]: DERMAL, Species: MOUSE, Strain/Sex: SWISS/FEMALE) “skin: tumor”; (Carcinogen: 7,12-DIMETHYLBENZ[A]ANTHRACENE, 57-97-6, Doses [Carcinogen]: 52 UG IN 100 µL ACETONE ONCE, Doses [Promoter]: 0, 100 MG/KG BW IN 100 µL DMSO 3/WK FOR 51 WK BEGINNING 1 WK POST CARCINOGEN DOSE (STUDY DURATION: 52 WK), Route [Carcinogen]: DERMAL, Route [Promoter]: DERMAL, Species: MOUSE, Strain/Sex: SWISS/MALE) “skin: tumor”.
Turning to `Cn1cc[nH]c1=S`, the outcome (Carcinogen: Acrylonitrile, 79-06-1, Doses [Carcinogen]: 2-3 mg/kg in drinking water, study duration 2 mo, Doses [Promoter]: 100 mg/l in drinking water, study duration 2 mo, Route [Carcinogen]: Oral, Route [Promoter]: Oral, Species: Mouse, Strain/Sex: CD1/Female (20,?)/(30/ ?)) is recorded as “thyroid; no tumors”.
Turning to `COc1cc(NS(=O)(=O)c2ccc(N)cc2)nc(OC)n1`, the outcome is, setting by setting: (Carcinogen: Kojic acid, 501-30-4, Doses [Carcinogen]: 0.02, 0.2, 2% in diet for 8 wk before administration of promoter, Doses [Carcinogen]: 0.02, 0.2, 2% in diet for 8 wk before administration of promoter, Doses [Promoter]: 0.1% in drinking water from 8 wk to 31 wk of experiment, study duration 44 wk, Route [Carcinogen]: Oral, Route [Promoter]: Oral, Species: Rat, Strain/Sex: F344//Male (20/experimental group (10 killed at 31 wk & 10 killed at 44 wk); 15/controls)) “thyroid: negative for tumors”; (Carcinogen: N-bis(2-hydroxypropyl)nitrosamine, 53609-64-6, Doses [Carcinogen]: 700 mg/kg, 4 injections administered over 8 wk before promoter, Doses [Promoter]: 0.1% in drinking water from 8 wk to 31 wk of experiment, study duration 44 wk, Route [Carcinogen]: Subcutaneous, Route [Promoter]: Oral, Species: Rat, Strain/Sex: F344//Male (20/experimental group (10 killed at 31 wk & 10 killed at 44 wk); 15/controls)) “thyroid: adenoma and carcinoma at both 31 and 44 wk”.
For the compound `CN[C@@H]1C[C@H]2O[C@@](C)([C@@H]1OC)n1c3ccccc3c3c4c(c5c6ccccc6n2c5c31)C(=O)NC4`, the outcome (Carcinogen: 7,12-DIMETHYLBENZ[A]ANTHRACENE, 57-97-6, Doses [Carcinogen]: 100 UG IN 100 µL ACETONE TO THE DORSAL SKIN ONCE, Doses [Promoter]: 0, 10, 50 UG IN 100 µL ACETONE TO THE DORSAL SKIN 2/WK FOR 29 WK BEGINNING 1 WK POST CARCINOGEN DOSE (STUDY DURATION: 30, Doses [Promoter]: 0, 10, 50 UG IN 100 µL ACETONE TO THE DORSAL SKIN 2/WK FOR 29 WK BEGINNING 1 WK POST CARCINOGEN DOSE (STUDY DURATION: 30, Route [Carcinogen]: DERMAL, Route [Promoter]: DERMAL, Species: MOUSE, Strain/Sex: CD-1/FEMALE) is listed as “skin: tumor”.
As for `Cc1cccc(O)c1`, the outcome under setting [1] was “integumentary system (skin)”.
In the case of `NC(Cc1c[nH]c2ccccc12)C(=O)O` (stereo not drawn), the outcome by setting is: (Carcinogen: 2-NAPHTHYLAMINE, Doses [Carcinogen]: DIET, Doses [Promoter]: IN DIET, Route [Carcinogen]: ORAL, Route [Promoter]: ORAL, Species: DOG, Strain/Sex: FEMALE) “urinary bladder”; (Carcinogen: N-(4-(5-NITRO-2-FURYL)-2-THIAZOLYL)FORMAMIDE, Doses [Carcinogen]: DIET, Doses [Promoter]: IN DIET, Route [Carcinogen]: ORAL, Route [Promoter]: ORAL, Species: RAT, Strain/Sex: F344/MALE) “urinary bladder: papilloma, carcinoma”.
